# Results reported in patent US20260226493A1, “HERBICIDE RESISTANT PLANTS” (SYNGENTA CROP PROTECTION AG, priority 2023, published 2026).
# Experiments:
# Test in all cases: biochemical
# [1] = target: T1, Arabidopsis thaliana BioDA variant enzymes (Arabidopsis thaliana, UniProt B0F481, C388T)
# T1 construct: with the predicted N-terminal mitochondrial transit peptide removed; 6xHis-tag (N); thrombin cleavage site (N); made in house; host or cells: E. coli BL21 (DE3) bioA
# Method: (§1) These plasmids were then expressed in E. coli BL21 (DE3) bioA with 50 μg/mL kanamycin and 25 μg/mL chloramphenicol selection. Overnight cultures grown at 37° C. were used to inoculate 8×500 mL AIM in shake flasks at a ratio of 1:100. Cultures were grown at 37° C., 200 rpm for 3.5 hours and then overnight at 20° C. Cells were harvested by centrifugation for 30 minutes at 10 000 g. Cells were stored at −80° C. until extraction. 30 g of cell pellet from was thawed in 120 mL of IMAC buffer A (20 mM HEPES pH7.5, 25 mM imidazole, 500 mM sodium chloride, 0.15 mM pyridoxal phosphate, 0.5 mM TCEP, 1× complete Protease Inhibitor Tablet (Roche)). The resuspension was passed through a cell disrupter at 18 000 PSI and centrifuged at 50 000 g for 25 minutes at 4° C. The His-tagged BIO3-BIO1 protein was purified from the extract supernatant on an AKTA avant chromatography system (Cytiva) using a HisTrap FF column and eluted in IMAC buffer B ((20 mM HEPES pH7.5, 500 mM imidazole, 500 mM sodium chloride, 0.15 mM pyridoxal phosphate, 0.5 mM TCEP) followed by SEC using a HiLoad 26/60 Superdex200 column in SEC buffer (25 mM HEPES pH7.5, 150 mM sodium chloride, 0.15 mM pyridoxal phosphate, 0.5 mM TCEP). Protein concentration was measured and calculated using the absorbance at 280 nm. Extracts were diluted 1 in 4 and 10 uL was analysed by SDS PAGE.
# (§2) To measure BIO3-BIO1 mutant enzyme activity in the presence of herbicide, herbicides were incubated with 20 μL of enzyme mix (100 mM EPPS pH 8.6, 0.1 mM pyridoxal phosphate, 0.1 mg/mL BSA, 50 nM BIO3-BIO1 enzyme) for 10 minutes at 20° C. in a well of a 96-well half-area black plate, followed by the addition of 20 μL of substrate mix (final concentration of 100 mM EPPS pH 8.6, 0.1 mM pyridoxal phosphate, 0.1 mg/mL BSA, 100 μM spermidine, 20 μM KAPA, 100 mM NaCO3) and further incubation for 75 minutes at 20° C. The reaction was terminated by the addition of 50 μL of derivatisation mix (final concentration of 250 mM borate NaOH pH 9.4, 3.6 mM o-phthalaldehyde, 7 mM β-mercaptoethanol, 17% (v/v) ethanol, 3.6% (v/v) methanol). The fluorescent product produced by the reaction of DAPA with o-phthalaldehyde and 7 mM β-mercaptoethanol was measured at 470 nm after excitation at 410 nm.
# (§3) For IC50 calculations, appropriate dose responses of compounds L, M, B, K and G were used. Calculated percentage inhibitions were then input into GraphPad Prism 7 and IC50s calculated using the non-linear regression (vs. normalised response) equation.
# [2] = target: T2, Arabidopsis thaliana BioDA variant enzymes (Arabidopsis thaliana, UniProt B0F481, F348C)
# T2 construct: with the predicted N-terminal mitochondrial transit peptide removed; 6xHis-tag (N); thrombin cleavage site (N); made in house; host or cells: E. coli BL21 (DE3) bioA
# T2 sequence (B0F481 24-833 F348C): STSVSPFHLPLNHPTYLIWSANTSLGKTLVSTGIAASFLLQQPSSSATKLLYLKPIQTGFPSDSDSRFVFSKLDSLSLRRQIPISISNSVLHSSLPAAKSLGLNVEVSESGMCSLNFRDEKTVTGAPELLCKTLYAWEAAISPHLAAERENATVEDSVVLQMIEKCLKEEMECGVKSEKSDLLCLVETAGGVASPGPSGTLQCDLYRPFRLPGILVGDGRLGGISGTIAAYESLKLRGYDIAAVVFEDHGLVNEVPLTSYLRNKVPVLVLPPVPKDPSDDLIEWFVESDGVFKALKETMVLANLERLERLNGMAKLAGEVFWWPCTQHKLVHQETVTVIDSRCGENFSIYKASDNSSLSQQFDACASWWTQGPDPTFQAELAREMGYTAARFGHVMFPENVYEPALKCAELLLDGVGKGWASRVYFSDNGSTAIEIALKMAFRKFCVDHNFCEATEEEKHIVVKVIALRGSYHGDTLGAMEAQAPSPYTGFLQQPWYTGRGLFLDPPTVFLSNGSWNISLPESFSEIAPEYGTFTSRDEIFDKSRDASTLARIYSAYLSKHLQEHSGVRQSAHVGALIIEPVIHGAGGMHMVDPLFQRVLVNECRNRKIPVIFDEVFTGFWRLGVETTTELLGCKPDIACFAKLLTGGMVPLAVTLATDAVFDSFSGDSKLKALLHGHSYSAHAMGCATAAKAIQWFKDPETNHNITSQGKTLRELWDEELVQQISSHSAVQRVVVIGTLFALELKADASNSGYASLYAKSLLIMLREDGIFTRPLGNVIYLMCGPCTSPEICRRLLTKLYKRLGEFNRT
# Method: as §1, §2, §3
# [3] = target: T3, Arabidopsis thaliana BioDA variant enzymes (Arabidopsis thaliana, UniProt B0F481, P421L)
# T3 construct: with the predicted N-terminal mitochondrial transit peptide removed; 6xHis-tag (N); thrombin cleavage site (N); made in house; host or cells: E. coli BL21 (DE3) bioA
# T3 sequence (B0F481 24-833 P421L): as the sequence (B0F481 24-833 F348C) above, with C325F, P398L counted along it
# Method: as §1, §2, §3
# [4] = target: T4, Arabidopsis thaliana BioDA variant enzymes (Arabidopsis thaliana, UniProt B0F481, W391L)
# T4 construct: with the predicted N-terminal mitochondrial transit peptide removed; 6xHis-tag (N); thrombin cleavage site (N); made in house; host or cells: E. coli BL21 (DE3) bioA
# T4 sequence (B0F481 24-833 W391L): as the sequence (B0F481 24-833 F348C) above, with C325F, W368L counted along it
# Method: as §1, §2, §3
# [5] = target: T5, Arabidopsis thaliana BioDA variant enzymes (Arabidopsis thaliana, UniProt B0F481, W392G)
# T5 construct: with the predicted N-terminal mitochondrial transit peptide removed; 6xHis-tag (N); thrombin cleavage site (N); made in house; host or cells: E. coli BL21 (DE3) bioA
# T5 sequence (B0F481 24-833 W392G): as the sequence (B0F481 24-833 F348C) above, with C325F, W369G counted along it
# Method: as §1, §2, §3
# T1 sequence (B0F481 24-833 C388T): as the sequence (B0F481 24-833 F348C) above, with C325F, C365T counted along it
smiles,measurement,setting,value
"CCn1c(Cn2ccc(C(F)(F)F)n2)cc(=O)c(C(=O)O)c1-c1ccc(Cl)c(Cl)c1 [Compound L, 2-(3,4-dichlorophenyl)-1-ethyl-4-oxo-6-[[3-(trifluoromethyl)pyrazol-1-yl]methyl]pyridine-3-carboxylic acid]",IC50,[1],0.092 µM
same,IC50,[2],77.6 µM
same,IC50,[3],0.687 µM
same,IC50,[4],16.3 µM
same,IC50,[5],17.7 µM
